Reference: patent US11591326B2, “Inhibitors of protein arginine methyltransferase 5 (PRMT5), pharmaceutical products thereof, and methods thereof” (PHARMABLOCK SCIENCES (NANJING), INC., priority 2018, dated 2023)

Key:
[1] = test system: Pancreatic Carcinoma MIA PaCa-2 cell; test: Cell proliferation inhibition, MIA PaCa-2 (CellTiter-Glo); type: cell-based; conditions: Homo sapiens, MIA PaCa-2, incubated for 12 days (read after 8 or 12 days), read-out: IC50 (μM) MIA PaCa2
Source text: (§1) Materials and Cell Lines: Z-138, U251, and MIA PaCa2 cells were purchased from ATCC (American Type Culture Collection, Manassas, Va.) and Chinese Academy of Science (Shanghai, China). Iscove's Modified Dulbecco's Medium (IMDM), Dulbecco's Modified Eagle Medium (DMEM), penicillin-streptomycin, heat inactivated fetal bovine serum (FBS), and horse serum was purchased from ThermoFisher, Waltham, Mass., USA. Corning 96- and 384-well cell culture plates were purchased from ThermoFisher, Waltham, Mass., USA. Cell-Titer Glo® was purchased from Promega Corporation, Madison, Wis., USA.
In order to evaluate the inhibitory ability of compounds synthesized on the proliferation of the Pancreatic Carcinoma MIA PaCa-2 cell, exponentially growing cells were seeded in the culture media of DMEM with 10% FBS, 2.5% horse serum, 1 mM of Sodium Pyruvate and 1% penicillin-streptomycin at a concentration of 2500 cells/ml in a 384-well plate with 20 ul per well and incubated overnight at 37° C., 5% CO2 incubator. Compounds were prepared as 10-point, 3-fold serial dilutions in DMSO, beginning at 6 mM. 1 μl of DMSO solutions from the compound stock plates were added to 99 ul of cell media (final top concentration of compound in the assay was 30 uM and the final concentration of DMSO was 0.5%). 20 μL of compound solutions in media were added to each well of MIA PaCa-2 cell plates. After adding compound solutions, assay plates were incubated for 12 days at 37° C., 5% CO2. During this incubation period, cell media was changed every 4 days. After removing old media from cell plates, 40 ul of media with testing compounds dissolved, which were prepared by adding 1 ul of compound DMSO serial solutions to 199 ul of cell media, were added to the assay plates with the same layout as they were initially prepared. After 8 or 12 days, cell viability was measured using the CellTiter-Glo assay kit from Promega (Madison, Wis., USA) by quantitating the ATP present in the cell cultures. 20 μL of CellTiter-Glo reagent was added to each well of the cell plates. Luminescence was read after 10 minute of incubation with the Envision multiple plate reader from PerkinElmer (Waltham, Mass., USA). The concentrations of compounds inhibiting cell viability by 50% (IC50 values) were determined using a sigmoidal dose-response model (variable slopes, four parameters) in Prism 7 (La Jolla, Calif., USA).

[2] = molecular target: Human recombinant PRMT5 in complex with human recombinant MEP50 (Homo sapiens (Human), UniProt O14744); test: PRMT5/MEP50 AlphaLISA enzyme inhibitory assay; type: biochemical; conditions: PRMT5/MEP50 25 nM, SAM 10 μM, Biotin-H4 peptide 30 nM
Chain of Human recombinant PRMT5 in complex with human recombinant MEP50 (O14744 whole entry): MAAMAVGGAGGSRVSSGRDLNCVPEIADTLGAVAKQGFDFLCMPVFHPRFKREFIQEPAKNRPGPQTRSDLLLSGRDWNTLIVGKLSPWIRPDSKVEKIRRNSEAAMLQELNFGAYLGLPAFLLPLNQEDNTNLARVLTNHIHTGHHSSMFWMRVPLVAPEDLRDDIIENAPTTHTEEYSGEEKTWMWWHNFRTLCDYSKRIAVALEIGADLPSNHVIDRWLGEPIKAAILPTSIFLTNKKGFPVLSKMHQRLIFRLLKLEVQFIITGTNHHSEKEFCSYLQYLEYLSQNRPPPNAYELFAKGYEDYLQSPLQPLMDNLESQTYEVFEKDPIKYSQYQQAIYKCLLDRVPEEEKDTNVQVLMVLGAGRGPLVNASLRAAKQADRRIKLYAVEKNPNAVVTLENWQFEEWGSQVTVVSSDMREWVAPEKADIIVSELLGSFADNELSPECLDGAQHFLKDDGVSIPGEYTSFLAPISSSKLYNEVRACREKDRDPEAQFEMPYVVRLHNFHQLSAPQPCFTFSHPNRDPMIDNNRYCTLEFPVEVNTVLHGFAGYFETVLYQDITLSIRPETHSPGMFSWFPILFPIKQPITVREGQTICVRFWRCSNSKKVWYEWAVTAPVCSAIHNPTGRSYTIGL
Chain of Human recombinant PRMT5 in complex with human recombinant MEP50 (Q9BQA1 whole entry partner): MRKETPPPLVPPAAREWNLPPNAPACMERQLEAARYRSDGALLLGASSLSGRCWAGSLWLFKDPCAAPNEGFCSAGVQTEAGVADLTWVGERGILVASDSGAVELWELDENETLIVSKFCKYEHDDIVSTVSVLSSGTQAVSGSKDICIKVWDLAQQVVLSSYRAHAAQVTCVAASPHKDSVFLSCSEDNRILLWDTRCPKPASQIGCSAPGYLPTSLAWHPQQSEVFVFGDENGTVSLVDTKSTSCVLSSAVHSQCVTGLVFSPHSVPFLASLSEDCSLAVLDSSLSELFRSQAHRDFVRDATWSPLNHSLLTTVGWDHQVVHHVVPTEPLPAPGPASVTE
In short: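 Insect-cell-expressed PRMT5/MEP50 (25 nM) preincubated with SAM (10 μM), then 15 min with compound in pH 8.5 Tris buffer, 1% DMSO. Biotin-H4(1–21) peptide (30 nM) reaction ran 120 min at room temperature. H4R3 methylation detected by AlphaLISA; IC50 from four-parameter sigmoidal fit.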

Glioblastoma U-251 cell = test: Cell proliferation inhibition, U-251 (CellTiter-Glo); type: cell-based; conditions: Homo sapiens, U-251, incubated for 12 days (read after 8 or 12 days)
Source text: as §1
In order to evaluate the inhibitory ability of compounds synthesized on the proliferation of the Glioblastoma U-251 cell, exponentially growing cells were seeded in the cell culture media of DMEM with 10% FBS and 1% penicillin-streptomycin at a concentration of 10000 cells/ml in a 384-well plate with 20 ul per well and incubated overnight at 37° C., 5% CO2 incubator. Compounds were prepared as 10-point, 3-fold serial dilutions in DMSO, beginning at 6 mM. 1 μl of DMSO solutions from the compound stock plates were added to 99 ul of cell culture media (final top concentration of compound in the assay was 30 uM and the final concentration of DMSO was 0.5%). 20 μL of compound solutions in media were added to each well of U-251 cell plates. After adding compound solutions, assay plates were incubated for 12 days at 37° C., 5% CO2. During this incubation period, cell culture media with freshly dissolved testing compounds was changed every 4 days. After removing old media from cell plates, 40 ul of media with testing compounds dissolved, which were prepared by adding 1 ul of compound DMSO serial solutions to 199 ul of cell media, were added to the assay plates with the same layout as they were initially prepared. After 8 or 12 days, cell viability was measured using the CellTiter-Glo assay kit from Promega (Madison, Wis., USA) by quantitating the ATP present in the cell cultures. 20 μL of CellTiter-Glo reagent was added to each well of the cell plates. Luminescence was read after 10 minute of incubation with the Envision multiple plate reader from PerkinElmer (Waltham, Mass., USA). The concentrations of compounds inhibiting cell viability by 50% (IC50 values) were determined using a sigmoidal dose-response model (variable slopes, four parameters) in Prism 7 (La Jolla, Calif., USA).

[3] = test system: Mantle Cell Lymphoma Z-138 cell; test: Cell proliferation inhibition, Z-138 (CCK8); type: cell-based; conditions: Homo sapiens, Z-138, 96 h, Z-138, incubated 4 days
Source text: as §1
In order to evaluate the inhibitory ability of compounds synthesized on the proliferation of the Mantle Cell Lymphoma Z-138 cell, exponentially growing cells were seeded in the media of IMDM with 10% horse serum and 1% penicillin-streptomycin at a concentration of 30000 cells/ml in a 96-well plate with 100 ul per well and incubated overnight at 37° C., 5% CO2 incubator. Compounds were prepared as 10-point, 3-fold serial dilutions in DMSO, beginning at 6 mM. 1 μl of DMSO solutions from the compound stock plates were added to 99 ul of cell culture media (final top concentration of compound in the assay was 30 uM and the final concentration of DMSO was 0.5%). 100 μL of compound solutions in media were added to each well of Z-138 cell plates. After adding compound solutions, assay plates were incubated for 4 days at 37° C., 5% CO2. Cell viability was measured using the Cell Counting Kit-8 (CCK8) obtained from the Beyotime Biotehnology, Shanghai, China. 20 ul of CCK8 reagent was added to each well of the Z-138 assay plate which was incubated at 37° C. for 2 hours. O.D. at 450 nm was read with the FlexStation 3 microplate reader (Molecular Devices, Sunnyvale, Calif. 94089 USA). The concentrations of compounds inhibiting cell viability by 50% (IC50 values) were determined using a sigmoidal dose-response model (variable slopes, four parameters) in Prism 7 (La Jolla, Calif.).

Row | SMILES | IC50 [1] [µM] | IC50 [2] [µM] | IC50 (Glioblastoma U-251 cell) [µM] | IC50 [3] [µM]
1 | Cn1cc(Nc2ccc3c(c2)C(=O)N(C[C@H](O)CN2CCc4ccccc4C2)CCO3)cn1 [Compound 29a, (R)-4-(3-(3,4-dihydroisoquinolin-2(1H)-yl)-2-hydroxypropyl)-7-((1-methyl-1H-pyrazol-4-yl)amino)-3,4-dihydrobenzo[f][1,4]oxazepin-5(2H)-one] | 0.4 | 0.0084 | 0.14 | 0.073
2 | Cn1cc(Nc2ccc3c(c2)C(=O)N(C[C@H](O)CN2CCc4ccccc4C2)CC3)cn1 [Compound 12a, (R)-2-(3-(3,4-dihydroisoquinolin-2(1H)-yl)-2-hydroxypropyl)-7-((1-methyl-1H-pyrazol-4-yl)amino)-3,4-dihydroisoquinolin-1(2H)-one] | 0.66 | 0.012 | 0.48 | 0.13
